Data published in patent US11242508B2, “Methods relating to pluripotent cells” (priority 2014, dated 2022).
Where two headings read alike, the source gives them in different places.

Legend:
[1] = system: Brain somatic cells; assay type: cell-based, mice; conditions: 1 week-old, after 1 week of stress treatment
Protocol: Exposure to external stimuli-stress treatment. To give a mechanical stress to mature cells, pasture pipette were heated and then stretched to create lumens approximately 50 microns in diameters, and then broken. Mature somatic cells were then triturated through these pipettes for 20 min, and cultured for 7 days. To provide a hypoxic stimulus to mature cells, cells were cultured in a 5% oxygen incubator for 3 weeks. An under nutrition stimulus was provided to mature cells, by culturing the cells in a basic culture medium for 3 weeks. To expose the mature cells to a physiological stress, they were treated with low pH (pH5.5) solution, and cultured for 7 days. Also, cells were given more serious damage. To create pores in mature cell membranes, cells were treated with SLO (Streptolysin O). […]
Cells were prepared according to standard protocols and suspended in 0.1% BSA/PBS on ice prior to FACS. […] Cells were sorted on a BD FACSAria SORP and analyzed on a BD LSRII with BD FACSDiva Software (BD Biosciences).

[2] = system: Fat somatic cells; assay: Percent of cells demonstrating pluripotent phenotype after stress treatment; assay type: cell-based, mice; conditions: 1 week-old, after 1 week of stress treatment
Text: (§1) Stress alteration of mature somatic cells procured from various adult tissues. To examine whether ACCs could be generated not only mature lymphocytes but also other types of somatic cells, brain, skin, muscle, fat, bone marrow, lung and liver were harvested from Oct4-GFP (GOF) mice^8. Cells were isolated from the tissue samples, dissociated into single cells, and treated with different physical and or chemical stress conditions. The efficiency of the process to alter the cells differed as a function of both the source of cells and the stress condition(s) to which the cells were exposed (FIG. 7A). The ability of stress to alter mature cells to express Oct4, differed depending on the derivation of cells, but stress was able to alter cells to express Oct4 to some degree in mature cells derived from all three germ layers (FIG. 7A). ACC colonies derived from any mature tissue expressed pluripotent markers, E-cadherin, Nanog, PCAM-1 and AP (data not shown), and ES specific marker genes (FIG. 7B). Significant physical and chemical stresses altered mature somatic cells to revert to a stem cell state, despite of the source of tissues and derivation of the germ layers.
(§2) Exposure to external stimuli-stress treatment. To give a mechanical stress to mature cells, pasture pipette were heated and then stretched to create lumens approximately 50 microns in diameters, and then broken. Mature somatic cells were then triturated through these pipettes for 20 min, and cultured for 7 days. To provide a hypoxic stimulus to mature cells, cells were cultured in a 5% oxygen incubator for 3 weeks. An under nutrition stimulus was provided to mature cells, by culturing the cells in a basic culture medium for 3 weeks. To expose the mature cells to a physiological stress, they were treated with low pH (pH5.5) solution, and cultured for 7 days. Also, cells were given more serious damage. To create pores in mature cell membranes, cells were treated with SLO (Streptolysin O).
(§3) SLO-treated cells were incubated in HBSS containing 10 μg/mL SLO at 37° C. for 50 min and then cultured in culture medium without SLO for 7 days. Cells exposed to under-nutrition stress were cultured in basal medium for 2 to 3 weeks. […] Cells exposed to “Ca” stress were cultured in culture medium containing 2 mM CaCl2) for 2 weeks.
(§4) Fluorescence-Activated Cell Sorting and Flow Cytometry. Cells were prepared according to standard protocols and suspended in 0.1% BSA/PBS on ice prior to FACS. PI (BD Biosciences) was used to exclude dead cells. Cells were sorted on a BD FACSAria SORP and analyzed on a BD LSRII with BD FACSDiva Software (BD Biosciences).

[3] = system: Muscle somatic cells; assay: as above; assay type: cell-based, mice; conditions: 1 week-old, after 1 week of stress treatment
Text: as §1, §2, §3, §4

[4] = system: Bone Marrow somatic cells; assay: as above; assay type: cell-based, mice; conditions: 1 week-old, after 1 week of stress treatment
Text: as §1, §2, §3, §4

[5] = system: Fibroblast; assay: as above; assay type: cell-based, mice; conditions: 1 week-old, after 1 week of stress treatment
Text: as §1, §2, §3, §4

[6] = system: Lung somatic cells; assay: as above; assay type: cell-based, mice; conditions: 1 week-old, after 1 week of stress treatment
Text: as §1, §2, §3, §4

[7] = system: mature somatic cells; assay: STAP cell generation with low pH solution containing ATP; assay type: cell-based; conditions: low pH solution containing ATP versus pH alone
Protocol: When this solution is used in combination with mechanical trituration of mature cells, the results were even more profound. Consequently, described herein is a protocol which incorporates these findings to increase the efficacy of generating STAP cells.
A1. Make a low pH HBSS solution containing ACT as follows and then set aside for use in step A4. […] The pH of this solution is about 3.0.
Place 5 mL of HBSS (with phenol red) [Life Technologies, 14170-161] into a 15 mL tube. Place a clean pH sensor into the HBSS. Titrate in the ACT stock solution, drop by drop, into the HBSS until the desired pH of, e.g., 5.0 is obtained. Mix the solution regularly to ensure that the measurement is accurate.
A4. […] In some embodiments, a volume of 2-3 ml of the cell suspension in a 50 ml tube can be used.

[8] = system: NK-1R; assay type: in vivo, rat
Protocol: (§5) The highly specific cytotoxin SSP-SAP (20 uL, 1 uM) was injected into the intrathecal (i.t.) space of the male rat spinal cord in order to ablate a large majority of the neurokinin-1 receptor (NK1R)-expressing neurons. Two to 3 weeks later the normally robust hyperalgesic responses to injection of capsaicin (10 uL, 0.1%) in the plantar hindpaw, consisting of mechanical hyperalgesia to stimulation by von Frey filaments and thermal hyperalgesia appearing as a shortening of the latency of withdrawal to a radiant heat source, were almost absent. […] It thus appears that STAP stem cells can restore normal function after specific spinal neuronal loss and present a model for a therapeutic approach to spinal cord injury.
Adult male S-D rats were first handled for 4-5 days to familiarize them with the test arena, to minimize stress-induced analgesia, and to obtain Naïve and initial Baseline behavioral data. Tactile responsiveness was determined by probing the plantar surface of one hindpaw with a 15 g von Frey filament (VFH), 10 times every 3 secs. Baseline sensitivity, with no treatments and no capsaicin equaled ˜1-2 paw withdrawals per 10 probes. […] Before any intrathecal injections, the Naïve rats' responses to capsaicin injection into the hindpaw were determined to be: Tactile: 6 withdrawals/10 VFH probes, and Thermal: 6 sec latency. […]

[9] = system: NK1-R; assay type: in vivo, rat; conditions: for IC50: read-out: IC50, tactile hyperalgesia
Protocol: as §5
(§6) Adult male S-D rats were first handled for 4-5 days to familiarize them with the test arena, to minimize stress-induced analgesia, and to obtain Naïve and initial Baseline behavioral data. Tactile responsiveness was determined by probing the plantar surface of one hindpaw with a 15 g von Frey filament (VFH), 10 times every 3 secs. Baseline sensitivity, with no treatments and no capsaicin equaled ˜1-2 paw withdrawals per 10 probes. Thermal sensitivity was indicated by the latency for paw withdrawal from a radiant heat source (Hargreaves method: cutoff time set at 18 sec.). Baseline latency ˜16 sec. Before any intrathecal injections, the Naïve rats' responses to capsaicin injection into the hindpaw were determined to be: Tactile: 6 withdrawals/10 VFH probes, and Thermal: 6 sec latency.

[10] = biological target: T1, NK1-R (Rattus norvegicus, UniProt P14600); assay type: in vivo; conditions: naïve rats (and rats that received Blank-SAP followed by stem cells, not shown); 30 uL i.t. injection; read-out: IC50, thermal hyperalgesia
T1 construct: from tissue; host or cells: spinal cord of living adult male Sprague-Dawley rats (in vivo, intrathecal dosing)
Protocol: as §5, §6

[11] = system: NK1-R; assay type: in vivo, rat
Protocol: as §5, §6

T1 sequence (P14600 whole entry): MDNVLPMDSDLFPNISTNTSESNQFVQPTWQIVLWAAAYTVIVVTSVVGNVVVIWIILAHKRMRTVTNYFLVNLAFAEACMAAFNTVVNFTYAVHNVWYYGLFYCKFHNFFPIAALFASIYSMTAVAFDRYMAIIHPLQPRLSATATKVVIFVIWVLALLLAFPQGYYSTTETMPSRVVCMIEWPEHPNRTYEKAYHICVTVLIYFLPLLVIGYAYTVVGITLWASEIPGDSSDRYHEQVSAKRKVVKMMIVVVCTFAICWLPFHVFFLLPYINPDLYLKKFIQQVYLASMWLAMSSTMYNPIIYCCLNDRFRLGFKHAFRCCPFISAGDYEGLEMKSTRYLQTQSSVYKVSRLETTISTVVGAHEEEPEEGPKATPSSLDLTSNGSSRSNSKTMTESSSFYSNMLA

Compound | Percent of cells demonstrating pluripotent phenotype [1] [%] | Percent of cells demonstrating pluripotent phenotype [2] [%] | Percent of cells demonstrating pluripotent phenotype [3] [%] | Percent of cells demonstrating pluripotent phenotype [4] [%] | Percent of cells demonstrating pluripotent phenotype [5] [%] | Percent of cells demonstrating pluripotent phenotype [6] [%] | also measured
streptolysin O [SLO] | 10.3 | 32.8 | 20.5 | 13.2 | 15.2 | 18.4 | 
Nc1ncnc2c1ncn2[C@@H]1O[C@H](COP(=O)([O-])OP(=O)([O-])OP(=O)(O)O)[C@@H](O)[C@H]1O.O.[Na+].[Na+] [ATP, Adenosine 5′ Triphosphate Disodium Salt Hydrate] |  | 79.6 | 68.4 | 12.3 | 25.10 | 9.8 | Efficacy of conversion to STAP cells [7]: dramatically increased the efficacy of this conversion
FC(F)(F)c1cc(CO[C@H]2CCCN[C@H]2c2ccccc2)cc(C(F)(F)F)c1 [L-733,060] |  |  |  |  |  |  | Enhancement of potency for inhibition of capsaicin hyperalgesia ([8]; STAP stem cell restored rats over Naïve rats or rats that received Blank-SAP): 10-60 times; Inhibition of the restored hyperalgesic response ([8]; STAP stem cell-restored rats, i.t. injection at 300 uM): fully inhibited; IC50 ([9]; naïve rats (and rats that received Blank-SAP followed by stem cells, not shown), 30 uL i.t. injection): ~300 µM; IC50 ([9]; stem cell-restored rats, i.t. injection): ~30 µM; IC50 [10]: ~300 µM; IC50 ([11]; stem cell-restored rats, i.t. injection, read-out: IC50, thermal hyperalgesia): ~5 µM
[Ca+2].[Cl-].[Cl-] [Ca, CaCl2] | 0.8 | 2.7 | 1.5 | 1.2 | 3.5 | 1.3 | 
COc1cc(CNC(=O)CCCC/C=C/C(C)C)ccc1O [capsaicin] |  |  |  |  |  |  | Tactile response to capsaicin injection into the hindpaw ([9]; Naïve rats, before any intrathecal injections, 15 g von Frey filament): 6 withdrawals/10 VFH probes; Thermal response to capsaicin injection into the hindpaw, latency ([11]; Naïve rats, before any intrathecal injections, radiant heat, cutoff 18 sec): 6 s
